# From US20070065366A1, “Pharmaceutical formulations comprising a long-acting beta2-agonist for administration by nebulisation” (Chiesi Farmaceutici S.p.A., priority 2005, published 2007)
# Experiments:
# [1] = Stability of CHF 4226 in aqueous solution, pH 4.0 to 5.5, buffers comprising citric acid at different concentrations (HPLC); format: physicochemical; conditions: pH interval between 4.0 and 5.0, 40° C., 75% R.H.
# Procedure: The chemical stability of CHF 4226 was then investigated in the pH interval comprised from 4.0 to 5.5 adjusted with buffers comprising citric acid at different concentrations.
# The different formulations were stored under accelerated conditions (40° C., 75% R.H.) for at least four months.
# Various liquid, propellant-free formulations comprising 0.001% w/v CHF 4226 were prepared according the procedure described in the Example 1 except that sodium chloride was not added in order to better appreciate the effect of the buffer concentration on the chemical stability.
# The pH was adjusted in the interval comprised between 4.0 and 5.5 with buffers consisting of different relative percentages of the citric acid/sodium citrate couple or the citric acid/dibasic sodium phosphate couple. Each formulation was distributed in 20 ml glass vials.
# The stability of the formulations was evaluated under accelerated conditions (40° C., 75% R.H.) for at least four months.
# The impurities/degradation products of CHF 4226 were determined by HPLC using the experimental conditions reported in the Example 2.
# [2] = First stability study of CHF 4226 solutions, pH 3.0 to 6.0 adjusted with different agents (HPLC); format: physicochemical; conditions: for stability (total impurities/degradation products): compared with not stable, higher than 5% after 1 month accelerated
# Procedure: Stability studies in different conditions of pH were carried out.
# The amount of the main degradation products and the total impurities and degradation products of CHF 4226 were determined by HPLC.
# Total impurities and degradation products comprise the starting impurities present in the drug, the main degradation products and other minor degradation products forming during storage.
# In a first study, the effect of the pH in a rather broad range comprised between 3.0 and 6.0 adjusted with different kind of agents was investigated.
# The different formulations were stored under long term (25° C., 60% R.H.) and accelerated (40° C., 75% R.H.) conditions for three months.
# [3] = cited from earlier work
chemical stability [1],"chemical stability in aqueous solution ([2]; pH 4.5±0.1, citrate buffer about 19 mM, compared with other pH/agents, 25° C./60% R.H. and 40° C./75% R.H., three months)","stability (total impurities/degradation products) ([2]; phosphoric acid, pH 3.0)","stability (total impurities/degradation products) ([2]; phosphoric acid/phosphate buffer, pH 6.0)",Structure (SMILES),"stability in solution ([3]; pH 4.0 to 6.0, acetate or acetate/phosphate buffer, protected from air)","effect of ferric ions on the auto-oxidation rate ([3]; presence of ferric ions, except the solution at pH 6.0 (acetate and phosphate buffer))","pH at which the lowest degradation rate was obtained ([3]; solutions at pH 4.0, 4.5, 5.0, 5.5 and 6.0)"
improved,chemically more stable,analogous behavior,analogous behavior,"COc1ccc(C[C@@H](C)NC[C@H](O)c2ccc(O)c3[nH]c(=O)ccc23)cc1 [CHF 4226, 8-hydroxy-5-[(1R)-1-hydroxy-2-[[(1R)-2-(4-methoxyphenyl)-1-methylethyl]amino]ethyl]-2(1H)-quinolinone]",–,–,–
–,–,–,–,CCC(NC(C)C)C(O)c1ccc(O)c2[nH]c(=O)ccc12 (stereo not shown) [procaterol],more stable at more acidic pHs,increased the auto-oxidation rate,4.0
